One data set concerns hiPSC-CM syncytia. Briefly: Spontaneous FP rate and IMP amplitude/beating rate in hiPSC-CM syncytia (RTCA CardioECR / RTCA Cardio). It is filed as cell-based, human. As to conditions: for Effect on FP rate / Effect on IMP amplitude: prodrug co-administered with 0.3 μM amiodarone, steady state (4 h), spontaneously beating hiPSC-CM syncytia. How it is done: hiPSC-CMs (iCells®) from Cellular Dynamics International (CDI, Madison, WI, USA) were seeded onto 48-well CardioECR or 96-well Cardio E-Plates® (ACEA Biosciences Inc., San Diego, CA, USA) coated with 10 μg/mL fibronectin (Sigma Aldrich, Catalog# F1141) at 30,000 cells/well, following manufacturer’s recommendations. Cells were maintained in culture (37 °C, 5% CO2) for a period of 14 days with iCell Maintenance® media (CDI, Madison, WI, USA) exchanged every 2–3 days. Compound addition was only performed on or after Day 14 following cell seeding.
Compound stock solutions were prepared in 100% DMSO or H2O. On the day of compound addition, the media was exchanged with fresh iCell Maintenance® media and allowed to equilibrate for at least 3 h in the incubator. The plates were read on an xCELLigence® RTCA CardioECR or RTCA Cardio (ACEA Biosciences Inc., San Diego, CA, USA). Control pre-reads to establish a baseline were recorded for at least 45 minutes (4 reads at 15-min intervals) prior to compound addition. The compound stock solutions were diluted into iCell Maintenance® media and quickly added to the plate. The plate was continuously monitored for at least 18 h following compound addition. IMP data were sampled at 12 ms (83 Hz), while FP rate data were collected at 0.1 ms (10 KHz). Attachment, growth and viability of syncytia were monitored by means of the baseline IMP signal, as previously described. IMP and FP signals were only interpreted if the baseline IMP was maintained throughout the measurement period (usually ≤18 hrs) at ≥70% of the value before test compound application (pre-read value).

The subject of another data set is hiPSC-CMs. Nature of the data set: Intracellular prodrug, cleavage intermediate metabolite and NTP metabolite concentrations in hiPSC-CMs. The format is in vitro ADME, human. The settings on record: for Intracellular Concentration, Prodrug / Intracellular Concentration, Cleavage Intermediate Metabolite / Intracellular Concentration, NTP Metabolite: hiPSC-CMs; for Intracellular Concentration, Cleavage Intermediate Metabolite / Intracellular Concentration, NTP Metabolite: BLOQ = below 17 pmol/million cells. How it is done: Approximately 18 h before dosing, iCell hiPSC-CMs were switched to iCell cardiomyocyte maintenance media free of Penicillin/Streptomycin. […] […] After the corresponding treatment, cells were washed 2x with 200 μL of ice-cold magnesium- and calcium-free PBS buffer. Cells were then lysed in 100 μL of ice-cold lysis solution (70/30 methanol/water containing 20 mM EDTA and 20 mM EGTA, pH 8) by pipetting up and down 5 times. Plates were sealed and transferred on dry ice for determination of prodrug, cleavage intermediate metabolite, and NTP metabolite concentrations. Intracellular prodrug concentrations were measured using a reversed phase HPLC- high resolution mass spectrometry method. A dimethylhexylamine based ion-pairing HPLC-MS/MS method was used to measure intracellular cleavage intermediate metabolite and NTP metabolite concentrations. Intracellular concentrations (pmol/million cells) of prodrug, cleavage intermediate metabolite, and NTP metabolite were quantitated against calibration standards of the same analytes prepared from control iCell hiPSC-CM lysates.
For prodrug analyses, full scan high resolution mass spectrometry data was collected using an Exactive™ Orbitrap mass spectrometer with an electrospray source operated in the positive ion mode. Prodrug chromatograms were extracted from full scan high resolution mass spectrometry data for the masses indicated in Supplementary Table 5. Absence of endogenous interference(s) was verified by extracting the same ion from full scan high resolution mass spectrometry chromatograms of unspiked control cell lysates. For the cleavage intermediate metabolite and NTP metabolite an electrospray MS/MS method run on a SCIEX API 4000 mass spectrometer with turboV ionspray source was used in negative ion mode monitoring the transitions indicated in Supplementary Table 5. Absence of endogenous interference(s) was verified by monitoring of the same MRM transitions for unspiked control cell lysates. Measured intracellular prodrug, cleavage intermediate metabolite, and NTP metabolite concentrations (in pmol/million cells units) were tabulated (Table 2).

Data set [1] deals with conscious, male rhesus monkeys. As to conditions: intravenous infusion of MK-3682 after AMIO pretreatment; cited from earlier work.
Data set [2] concerns anesthetized, male Dunkin-Hartley guinea pigs. Nature of the data set: Heart rate in anesthetized guinea pigs, IV infusion. The format is in vivo, guinea pig.
Description: Adult, male Dunkin-Hartley guinea pigs (350–550 g) were anesthetized and instrumented as previously described[7][29].
Data set [3] can be described thus: Plasma concentration in anesthetized guinea pigs. The settings on record: IV. From the text: Adult, male Dunkin-Hartley guinea pigs (350–550 g) were anesthetized and instrumented as previously described.
Data set [4] in a line: Cardiac tissue concentrations in anesthetized guinea pigs. The settings on record: end of IV infusions, prodrug alone or + amiodarone. The format is in vivo, guinea pig.
The test system of data set [5] is conscious, male rhesus monkeys. Briefly: Heart rate, MBP and ECG intervals in conscious, restrained rhesus monkeys. The format is in vivo, rhesus monkey. How it is done:
(§1) Arterial BP and ECG waveforms from four chronically-instrumented male, rhesus monkeys (8-16 kg at time of study, approximately 5–8 years of age), were continuously recorded (Notocord-hem™ v 4.3.0.67) and analyzed as described. Prior to study, animals were acclimated to the restraint chair and the laboratory environment over multiple sessions. […] MNI-2 was formulated in 30% Captisol®. […] Samples were placed on wet ice, centrifuged at 4 °C and plasma removed and stored at −70 °C until analysis of concentration of test agents and any metabolites of interest.

Data set [6] in a line: Plasma concentration in conscious rhesus monkeys. The settings on record: at the end of the MNI-2+amiodarone experiment. How it is done: as §1
The mark [7] stands for this setting: 10 μM prodrug + 0.3 μM amiodarone, 4 Hours.
[8] abbreviates: 10 μM prodrug + 0.3 μM amiodarone, 30 Min.

Turning to `CC(C)OC(=O)[C@@H](C)NP(=O)(OC[C@H]1O[C@@H](n2ccc(=O)[nH]c2=O)[C@](C)(Cl)[C@@H]1O)Oc1ccccc1` (stereo partly drawn) [MK-3682, isopropyl (2R)-2-[[[(2R,3R,4R,5R)-4-chloro-5-(2,4-dioxopyrimidin-1-yl)-3-hydroxy-4-methyl-tetrahydrofuran-2-yl]methoxy-phenoxy-phosphoryl]amino]propanoate], in the data set with hiPSC-CM syncytia, the “Effect on FP rate” value is “lack of effects” and the “Effect on IMP amplitude” value is given as “lack of effects”. Also, in the data set on hiPSC-CMs (setting [7]), the “Intracellular Concentration, Prodrug” value was 91.9 ± 12.4 pmol/million cells; the “Intracellular Concentration, Cleavage Intermediate Metabolite” value is on record as “BLOQ”; the “Intracellular Concentration, NTP Metabolite” value was “BLOQ”. Also, in the data set on hiPSC-CMs (setting [8]), the “Intracellular Concentration, Prodrug” value is 95.0 ± 6.7 pmol/million cells; the “Intracellular Concentration, Cleavage Intermediate Metabolite” value is on record as “BLOQ”; the “Intracellular Concentration, NTP Metabolite” value was “BLOQ”. Besides, in the data set on hiPSC-CMs (10 μM prodrug alone, 4 Hours), the “Intracellular Concentration, Prodrug” value was 100.4 ± 13.2 pmol/million cells; the “Intracellular Concentration, Cleavage Intermediate Metabolite” value was “BLOQ”; the “Intracellular Concentration, NTP Metabolite” value is “BLOQ”. In addition, in the data set with hiPSC-CMs (10 μM prodrug alone, 30 Min), the “Intracellular Concentration, Prodrug” value was determined as 89.8 ± 12.9 pmol/million cells; the “Intracellular Concentration, Cleavage Intermediate Metabolite” value is “BLOQ”; the “Intracellular Concentration, NTP Metabolite” value is listed as “BLOQ”. In addition, in data set [1], the Bradycardia and bradyarrhythmia entry is listed as “not observed”.

In the case of `CC(C)OC(=O)[C@@H](C)NP(=O)(OC[C@H]1O[C@@H](n2ccc(=O)[nH]c2=O)[C@](C)(F)[C@@H]1O)Oc1ccccc1` (stereo partly drawn) [MNI-2, isopropyl (2R)-2-[[[(2R,3R,4R,5R)-5-(2,4-dioxopyrimidin-1-yl)-4-fluoro-3-hydroxy-4-methyl-tetrahydrofuran-2-yl]methoxy-phenoxy-phosphoryl]amino]propanoate], the “Effects on IMP-measured beating rate and IMP amplitude” value in the data set with hiPSC-CM syncytia (10 μM prodrug combined with 0.3 μM amiodarone, up to 18 h) was “failed to evoke changes over each drug alone”. Moreover, the “Effect on FP rate” value in the data set on hiPSC-CM syncytia is “lack of effects”. In the data set with hiPSC-CM syncytia, the “Effect on IMP amplitude” value was “lack of effects”. The “Detection of cleavage intermediate metabolite or NTP in hiPSC-CMs” value with hiPSC-CMs (following application of prodrug (10 μM) ± amiodarone) is recorded as “no measurable concentrations”. For the same compound, the “Intracellular Concentration, Prodrug” value in the data set on hiPSC-CMs (setting [7]) is listed as 61.0 ± 3.3 pmol/million cells; in the data set on hiPSC-CMs (setting [8]) it was 54.8 ± 3.3 pmol/million cells; in the data set on hiPSC-CMs (10 μM prodrug alone, 4 Hours) it was 173.0 ± 133.3 pmol/million cells; with hiPSC-CMs (10 μM prodrug alone, 30 Min), 53.5 ± 4.5 pmol/million cells. The “Intracellular Concentration, Cleavage Intermediate Metabolite” value with hiPSC-CMs (setting [7]) is reported as “BLOQ”; in the data set with hiPSC-CMs (setting [8]), “BLOQ”; in the data set with hiPSC-CMs (10 μM prodrug alone, 4 Hours), “BLOQ”; in the data set with hiPSC-CMs (10 μM prodrug alone, 30 Min) it was “BLOQ”. The “Intracellular Concentration, NTP Metabolite” value with hiPSC-CMs (setting [7]) is “BLOQ”; in the data set with hiPSC-CMs (setting [8]), “BLOQ”; in the data set with hiPSC-CMs (10 μM prodrug alone, 4 Hours) it was “BLOQ”; in the data set with hiPSC-CMs (10 μM prodrug alone, 30 Min) it was “BLOQ”. Also, the “HR, % change from baseline” value in data set [2] (coadministration of 10 mg/kg MNI-2 and 2.5 mg/kg amiodarone IV (cumulative)) is listed as −9%; in data set [2] (cumulative IV infusion dose 10 mg/kg MNI-2 alone), −3%. Further, the “Plasma concentration of parent” value is listed as 4.2 ± 2.1 µM in data set [3] (agent + vehicle, End of Infusion 1); 4.2 ± 0.9 µM in data set [3] (agent + vehicle, End of Infusion 2); 3.9 ± 0.1 µM in data set [3] (agent + vehicle, End of Infusion 3); 3.7 ± 1.0 µM in data set [3] (agent + vehicle, End of Infusion 4); 3.0 ± 0.8 µM in data set [3] (treatment MNI-2+AMIO, End of Infusion 1); 3.5 ± 1.0 µM in data set [3] (treatment MNI-2+AMIO, End of Infusion 2). The “Plasma concentration of parent” value in data set [3] (treatment MNI-2+AMIO, End of Infusion 3) amounted to 3.7 ± 0.6 µM; in data set [3] (treatment MNI-2+AMIO, End of Infusion 4) it was 3.7 ± 0.9 µM. For the same compound, in data set [4], the “Cleavage intermediate metabolite and NTP metabolite in cardiac tissue” value is given as “did not produce detectable levels”. Also, the “Effect on HR” value in data set [5] (IV infusion of MNI-2 (4, then 2 mg/kg/30 min), alone or after prior administration of amiodarone (3 mg/kg/30 min)) was “no effect”. Also, the “MBP or PR, QRS, QT ECG interval changes” value in data set [5] (IV infusion of MNI-2 alone or after pretreatment with amiodarone) is reported as “did not result in MBP or PR, QRS, QT ECG interval changes”. Besides, the Plasma concentration in data set [6] is recorded as 3048 ± 413 ng/mL.

(Values after PMC5361079 (Scientific Reports, 2017).)
